Source: patent US12053454B2, “Compositions for cryopreservation and methods of use thereof” (EVERGREEN BIOSCIENCES, priority 2017, dated 2024)

Assays:
[1] = system: primary mouse cortical neuron cells; experiment: Viability after freeze/thaw in solutions comprising different necrostatins; assay type: cell-based; details: necrostatin 20 nM with other components of the soln unchanged; vs vehicle cryopreserved with 10% DMSO
Description: Several analogs of necrostatins were studied and found to work similarly in their cryoprotective effect after freeze/thaw.

[2] = system: stem cells (motor neuron precursors); experiment: Motor neuron identity (CHAT1) after freezing of stem cells; assay type: cell-based; details: frozen in solutions comprising 0.01 μM cyspA, or 20 nM Nec1, or 5 nM iMAC2; vs frozen in the absence of these compounds
Description: Cellular freeze/thaw cycle causes stem cells to lose their identity, as measured by the level of CHAT1 in motor neurons. […] As shown here (FIG. 3), each of cyspA, Nec1, and IMAC2 provided cryoprotection to stem cells upon freezing, maintaining cellular characteristics. Cryoprotectants in solution used to freeze the cells, maintained motor neuron identity, as measure by the level of CHAT1.

Structure (SMILES)	percent viability [1]	CHAT1 levels [2]
COc1ccc2c(c1)C1=NN(C(C)=O)C(c3ccc(F)cc3)C1CC2 (centres unmarked) [Nec3]	significantly enhanced percent viability	–
Cl.Cl.OC(CN1CCNCC1)Cn1c2ccc(Br)cc2c2cc(Br)ccc21 (centres unmarked) [iMAC2, 3,6-Dibromo-a-(1-piperazinylmethyl)-9H-carbazole-9-ethanol dihydrochloride]	–	maintained CHAT1 levels
